According to PubChem BioAssay (NCI):
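Compound exposure: 48 hours, 5 concentrations, 96-well plates. The concentration for full growth arrest is given as TGI.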

Columns and labels:
Test in all cases: NCI tumour cell line growth inhibition, 48 h
MOLT-4 leukemia = test system: MOLT-4 leukemia
T-47D breast = test system: T-47D breast
UACC-62 melanoma = test system: UACC-62 melanoma
M14 melanoma = test system: M14 melanoma
SK-OV-3 ovarian = test system: SK-OV-3 ovarian
786-0 renal = test system: 786-0 renal
HOP-62 NSCLC = test system: HOP-62 NSCLC
BT-549 breast = test system: BT-549 breast
ACHN renal = test system: ACHN renal
OVCAR-8 ovarian = test system: OVCAR-8 ovarian
UACC-257 melanoma = test system: UACC-257 melanoma
CCRF-CEM leukemia = test system: CCRF-CEM leukemia
HOP-92 NSCLC = test system: HOP-92 NSCLC
A498 renal = test system: A498 renal
EKVX NSCLC = test system: EKVX NSCLC
HL-60(TB) leukemia = test system: HL-60(TB) leukemia
SF-268 CNS = test system: SF-268 CNS
SK-MEL-5 melanoma = test system: SK-MEL-5 melanoma
A549 NSCLC = test system: A549 NSCLC
HCC-2998 colon = test system: HCC-2998 colon

Row | Compound | TGI (MOLT-4 leukemia) | TGI (T-47D breast) | TGI (UACC-62 melanoma) | TGI (M14 melanoma) | TGI (SK-OV-3 ovarian) | TGI (786-0 renal) | TGI (HOP-62 NSCLC) | TGI (BT-549 breast) | TGI (ACHN renal) | TGI (OVCAR-8 ovarian) | TGI (UACC-257 melanoma) | TGI (CCRF-CEM leukemia) | TGI (HOP-92 NSCLC) | TGI (A498 renal) | TGI (EKVX NSCLC) | TGI (HL-60(TB) leukemia) | TGI (SF-268 CNS) | TGI (SK-MEL-5 melanoma) | TGI (A549 NSCLC) | TGI (HCC-2998 colon)
1 | O=c1[nH]c2ccccc2c(=O)n1/N=C/c1ccc(O)cc1 | > 100 µM | > 100 µM | > 100 µM | > 100 µM | > 100 µM | > 100 µM | 48 µM | > 100 µM | > 100 µM | > 100 µM | > 100 µM | > 100 µM | 90.4 µM | > 100 µM | > 100 µM | > 100 µM | > 100 µM | > 100 µM | > 100 µM | 
2 | COC(=O)C(N)CCCC(N)C(=O)NC(C)C(=O)NC(CCC(=O)NCCNCCNc1c2ccccc2nc2cccc([N+](=O)[O-])c12)C(N)=O (stereo not given) | > 100 µM | 45.8 µM | 27.1 µM | 26.2 µM | > 100 µM | > 31 µM | 53.7 µM | 38.5 µM | > 61.1 µM | 42.3 µM | 70.5 µM | > 50.9 µM | 23.8 µM | 40.3 µM | 32.9 µM |  | 10.7 µM | 18.1 µM | > 43.6 µM | 34.2 µM
3 | Nc1ccc2c(O)cc(=O)[nH]c2n1 | > 100 µM | > 100 µM | > 100 µM | > 100 µM | > 100 µM | > 100 µM |  | > 100 µM | > 100 µM | > 100 µM | > 100 µM |  | > 100 µM |  | > 100 µM | > 100 µM | > 100 µM | > 100 µM | > 100 µM | 
4 | O=c1oc2ccccc2nc1/C=C(\O)c1ccc(Cl)cc1 | > 100 µM | > 100 µM | > 100 µM | > 100 µM | > 100 µM | > 100 µM | > 100 µM | > 100 µM | > 100 µM | > 100 µM | > 100 µM | > 100 µM |  | > 100 µM | > 100 µM |  | > 100 µM | > 100 µM | > 100 µM | > 100 µM
5 | COc1ccc(N=N/C(=N/NC(=O)c2ccc(C)cc2)c2ccc(N(CCC#N)CCC#N)cc2OC)cc1 | > 100 µM | > 100 µM | > 100 µM | > 100 µM | > 100 µM | > 100 µM | > 100 µM | > 100 µM | > 100 µM | > 100 µM | > 100 µM |  | > 100 µM | > 100 µM | > 100 µM |  | > 100 µM | > 100 µM | > 100 µM | > 100 µM
6 | COc1ccc(C2N(c3ccc(F)cc3)C(=O)N3C(c4ccc(OC)cc4)N(c4ccc(F)cc4)C(=O)N23)cc1 (stereo not given) |  | > 100 µM | > 100 µM | > 100 µM |  | > 100 µM | > 100 µM | > 100 µM | > 100 µM | > 100 µM | > 100 µM | > 100 µM | > 100 µM | > 100 µM | > 100 µM | > 100 µM | > 100 µM | > 100 µM | > 100 µM | 
7 | O=C1C[C@H](c2ccccc2)O[C@@H](c2ccccc2)C1 | > 100 µM | > 100 µM | > 100 µM | > 100 µM | > 100 µM | > 100 µM | > 100 µM | > 100 µM |  | > 100 µM | > 100 µM | > 100 µM | > 100 µM |  | > 100 µM |  | > 100 µM | > 100 µM | > 100 µM | > 100 µM
8 | O=C(O)CCCC(=O)Nn1c(Cc2ccc(Cl)cc2)n[nH]c1=O | > 100 µM | > 100 µM | > 100 µM | > 100 µM | > 100 µM | > 100 µM | > 100 µM | > 100 µM | > 100 µM | > 100 µM | > 100 µM | > 100 µM | > 100 µM | > 100 µM | > 100 µM | > 100 µM | > 100 µM | > 100 µM | > 100 µM | 
9 | O=c1[nH]c(=O)n(COCc2ccccc2)c2ccsc12 | > 100 µM | > 100 µM |  | > 100 µM |  | > 100 µM | > 100 µM | > 100 µM | > 100 µM | > 100 µM | > 100 µM | > 100 µM | > 100 µM | > 100 µM | > 100 µM |  | > 100 µM | > 100 µM | > 100 µM | > 100 µM
10 | CN(C)CCCN1C(=S)N(CCCN(C)C)c2c3ccccc3nc3c([N+](=O)[O-])ccc1c23 | > 100 µM | 31.6 µM | 24.3 µM | 26.8 µM | 50.8 µM | 18.2 µM | 47 µM | 36.4 µM | 16.1 µM | 22.5 µM | 20.3 µM | > 100 µM | 19.5 µM | 22.9 µM | 25.1 µM |  | 32.5 µM | 18.8 µM | > 42.2 µM | 14.5 µM
11 | COc1cc(OC)c2c(c1)OC(c1ccccc1)CC2=O (stereo not given) | > 10 µM | > 10 µM | > 10 µM | > 10 µM | > 10 µM | > 10 µM | > 10 µM | > 10 µM | > 10 µM | > 10 µM | > 10 µM | > 10 µM | > 10 µM |  | > 10 µM | > 10 µM | > 10 µM | > 10 µM | > 10 µM | > 10 µM
12 | CC(C)=CCC[C@@H](C)/C=C/C=C(\C)C(=O)CC[C@@H]1CC[N@+]2(C)CCCC[C@H]12 | > 100 µM | > 100 µM | > 100 µM | > 100 µM |  | > 100 µM | > 100 µM | > 100 µM | > 100 µM | > 100 µM | > 100 µM |  | > 100 µM | > 100 µM | > 100 µM |  | > 100 µM | > 100 µM | > 100 µM | > 100 µM
13 | O=C1/C(=C\Oc2ccc(F)cc2)N2CCC1CC2 | > 100 µM | > 100 µM | > 100 µM | > 100 µM | > 100 µM | > 100 µM | > 100 µM | > 100 µM | > 100 µM | > 100 µM | > 100 µM | > 100 µM | > 100 µM | > 100 µM | > 100 µM | > 100 µM | > 100 µM | > 100 µM | > 100 µM | 
14 | CC1(C)O[C@@H]([C@H](O)CO)[C@H](O)[C@@H](C2SCCCS2)O1 |  | > 100 µM | > 100 µM | > 100 µM | > 100 µM | > 100 µM | > 100 µM | > 100 µM | > 100 µM | > 100 µM | > 100 µM |  | > 100 µM | > 100 µM | > 100 µM |  | > 100 µM | > 100 µM | > 100 µM | > 100 µM
15 | CCOC(=O)c1c(N)n(-c2ccccc2)c(=O)n(-c2ccccc2)c1=O | > 100 µM | > 100 µM | > 100 µM | > 100 µM |  | > 100 µM |  | > 100 µM | > 100 µM | > 100 µM | > 100 µM |  | > 100 µM |  |  | > 100 µM | > 100 µM | > 100 µM | > 100 µM | > 100 µM
16 | CCOc1cc(C2SCC(=O)N2c2ccc(Oc3ccc(Cl)cc3)c(Cl)c2)ccc1O (stereo not given) | 64.4 µM | 40.4 µM | 30.3 µM | 56.1 µM | 37.3 µM | 45.8 µM | 40.8 µM | 31.5 µM | 31.2 µM | 38.2 µM | 33.3 µM | 49.5 µM | 33.7 µM |  | 33.4 µM | 47 µM | 30.9 µM | 31.5 µM | 39.7 µM | 35.8 µM
17 | O=c1cc(N=Nc2ccc(Br)cc2)[nH]c(=S)[nH]1 | 63.3 µM | 62.4 µM | > 100 µM | 29.1 µM | > 100 µM | 17.1 µM | > 100 µM | > 100 µM | 40.8 µM | 51.3 µM | 67.7 µM | 54.5 µM | 50.5 µM |  | 39.6 µM | 58.6 µM | > 100 µM | > 100 µM | > 100 µM | 38.6 µM
18 | CN(C)CCCc1cccc2[nH]c3c(c12)CN(C)CC3 | > 100 µM | > 100 µM | > 100 µM | 33.9 µM | > 100 µM | > 100 µM | > 100 µM | > 100 µM | > 100 µM | > 100 µM | > 100 µM | > 100 µM | > 100 µM |  | > 100 µM | > 100 µM | > 100 µM | > 100 µM | > 100 µM | > 100 µM
19 | O=C1NC(N2CCOCC2)=N/C1=C\c1ccc(Cl)cc1 | > 100 µM | > 100 µM | > 100 µM | > 100 µM | > 100 µM | > 100 µM | > 100 µM | > 100 µM | > 100 µM | > 100 µM | > 100 µM | > 100 µM | > 100 µM |  | > 100 µM | > 100 µM | > 100 µM |  | > 100 µM | > 100 µM
20 | CCOC(=O)c1c[nH]c2c(Sc3ccccc3)nccc2c1=O | > 100 µM | > 100 µM | > 100 µM | > 100 µM | > 100 µM | > 100 µM | > 100 µM | > 100 µM | > 100 µM | > 100 µM | > 100 µM | > 100 µM | > 100 µM | > 100 µM | > 100 µM | 83.2 µM | > 100 µM | > 100 µM | > 100 µM | 
